Data on 1 compound can be found in patent US10835500B2, “Medicament for accelerated wound healing” (Symrise AG, priority 2014, dated 2020).

One assay deals with IL-1β. Description: Quantitative real-time PCR of IL-1β in HaCaT cells. The class given is cell-based, human. The note with it: after 24 hours, 500 μM. Here is the method: (§1) In order to investigate interleukin secretion, quantitative real-time PCR was first carried out. For this purpose, RNA from HaCaT cells was used that had previously been stimulated for 6 or 24 hours with Sandalore®. Detection was carried out with specific primers of various interleukins (IL-1α, IL-1β, IL-6, IL-8) and tumor necrosis factor (TNF▪). […] In order to corroborate the results, an ELISA assay was carried out, in which the secreted interleukins in the supernatant of the cells can be detected by means of an immunological reaction. By means of the assay used, secretion of the interleukins (IL-1α, IL-1β, IL-2, IL-4, IL-6, IL-8, IL-10, IL-12, and IL-17α), TNFα, γ-interferon (IFNγ), and granulocyte macrophage colony-stimulating factor (GMCSF) was investigated.
(§2) Investigation of interleukin secretion and phosphorylation of Akt protein kinase after Sandalore® stimulation. A) Investigation of the regulation of interleukins in HaCaT cells by means of qRT-PCR after stimulation with Sandalore® (500 μM) for 6 h and 24 h. 0.1% DMSO was used as a control. GAPDH was used as a reference gene, and the relative expression between untreated and stimulated cells was determined. Mean values including standard error. n=3 experiments. […] The measured optical density of the treated cells at 450 nm was expressed relative to the background. […]
On the technique in general: In qPCR the cycle at which signal appears reflects the starting amount.

The next assay deals with IL-8. Description: ELISA of secreted IL-8 in supernatant of HaCaT cells. The class given is cell-based, human. The note with it: 24-hour stimulation, 500 μM. How it is done:
as §1, §2

SMILES strings stand for the structures.

Consider `CC1=CCC(CCC(C)C(C)O)C1(C)C` (centres unmarked) [Sandalore®], for which the “increase of expression of IL-1β relative to the control (0.1% DMSO)” value in the assay with IL-1β is “approx. 1700%”. Moreover, the “secretion of IL-8 relative to the control (0.1% DMSO)” value in the assay on IL-8 was “not significantly higher than the control”.
